The source of these data is ChEMBL document CHEMBL4033655, “Part I: Design, synthesis and biological evaluation of novel pyrazole-benzimidazole conjugates as checkpoint kinase 2 (Chk2) inhibitors with studying their activities alone and in combination with genotoxic drugs” (Eur J Med Chem, 2017).

This series is described as follows: Acute toxicity in Sprague-Dawley rat assessed as mortality administered orally as single dose measured up to 1 month. The note with it: in vivo, po.

Usually LD50 stands for the dose expected to kill half of the subjects tested. As for `Cc1nn(-c2ccccc2)c(Oc2ccc(-c3nc4cc(C(=O)O)ccc4[nH]3)cc2)c1[N+](=O)[O-]`, the 50% lethal dose (LD50) came to 400 mg/kg.
